Reference: the supplement of paper PMC6045584
± gives the standard deviation of the averaged measurements.

What was measured:
NILOTINIB = compound: Cc1cn(-c2cc(NC(=O)c3ccc(C)c(Nc4nccc(-c5cccnc5)n4)c3)cc(C(F)(F)F)c2)cn1 [NILOTINIB]; experiment: surviving fraction relative to DMSO-only wells; higher = less growth inhibition; conditions: exposure time: 5 days
Procedure, shortened: (§1)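 Luminescence normalised to the median of DMSO-only wells defines surviving fraction, with viability read by CellTiter-Glo. Signal was recorded after 10 minutes at room temperature, once log-phase tumour cell lines seeded at 250–500 cells per well in 384-well plates had spent 24 hours settling and then five days under continuous exposure to inhibitors at 0.5, 1, 5, 10, 50, 100, 500 and 1000 nM.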

[1] = compound: C[C@@H]1CN(CC(=O)Nc2ccc3c(c2)Cc2cccc(-c4cc(=O)cc(N5CCOCC5)o4)c2S3)C[C@H](C)O1; experiment: as above; conditions: exposure time: 5 days
Procedure, shortened: as §1

Test System | surviving fraction (NILOTINIB; 0.5 nM) | surviving fraction (NILOTINIB; 1 nM) | surviving fraction (NILOTINIB; 5 nM) | surviving fraction (NILOTINIB; 10 nM) | surviving fraction (NILOTINIB; 50 nM) | surviving fraction (NILOTINIB; 100 nM) | surviving fraction (NILOTINIB; 500 nM) | surviving fraction (NILOTINIB; 1000 nM) | surviving fraction ([1]; 0.5 nM) | surviving fraction ([1]; 1 nM) | surviving fraction ([1]; 5 nM) | surviving fraction ([1]; 10 nM) | surviving fraction ([1]; 50 nM) | surviving fraction ([1]; 100 nM) | surviving fraction ([1]; 500 nM) | surviving fraction ([1]; 1000 nM)
SNU475 LIVER | 1.05 ± 0.028 | 1 ± 0.036 | 1.01 ± 0.031 | 1.04 ± 0.017 | 0.941 ± 0.026 | 0.939 ± 0.03 | 0.953 ± 0.024 | 0.858 ± 0.076 | 0.97 ± 0.022 | 1.02 ± 0.034 | 1.007 ± 0.0086 | 1.02 ± 0.027 | 0.876 ± 0.026 | 0.96133 ± 0.00058 | 0.863 ± 0.04 | 0.669 ± 0.036
DU4475 BREAST | 1.12 ± 0.018 | 1.06 ± 0.023 | 1.14 ± 0.13 | 1.06 ± 0.063 | 0.925 ± 0.088 | 1.06 ± 0.1 | 1.05 ± 0.066 | 0.9 ± 0.061 | 1.12 ± 0.23 | 1.08 ± 0.011 | 0.951 ± 0.13 | 1.18 ± 0.12 | 0.794 ± 0.22 | 1.12 ± 0.36 | 1.31 ± 0.55 | 1.05 ± 0.23
SG31 HEADNECK | 1.24 ± 0.13 | 1.2 ± 0.13 | 1.08 ± 0.11 | 1.24 ± 0.21 | 1.14 ± 0.081 | 1.26 ± 0.17 | 1.02 ± 0.15 | 1.16 ± 0.13 | 0.946 ± 0.076 | 0.916 ± 0.1 | 1.06 ± 0.17 | 0.953 ± 0.07 | 0.971 ± 0.12 | 0.964 ± 0.09 | 1.08 ± 0.087 | 1.06 ± 0.098
SKBR3 BREAST | 1.01 ± 0.13 | 1.02 ± 0.074 | 1 ± 0.037 | 0.994 ± 0.13 | 0.731 ± 0.097 | 0.826 ± 0.18 | 0.744 ± 0.061 | 0.775 ± 0.076 | 1.06 ± 0.013 | 0.979 ± 0.19 | 0.937 ± 0.22 | 0.939 ± 0.088 | 0.9 ± 0.16 | 1.05 ± 0.13 | 0.886 ± 0.07 | 0.61 ± 0.033
MDAMB361 BREAST | 0.632 ± 0.033 | 0.953 ± 0.057 | 0.69 ± 0.11 | 0.743 ± 0.06 | 0.533 ± 0.078 | 0.601 ± 0.059 | 0.619 ± 0.02 | 0.539 ± 0.1 | 0.778 ± 0.042 | 0.885 ± 0.074 | 0.776 ± 0.078 | 0.756 ± 0.083 | 0.591 ± 0.036 | 0.765 ± 0.056 | 0.548 ± 0.045 | 0.529 ± 0.071
ASKA SYNOVIAL | 1.13 ± 0.033 | 1.02 ± 0.11 | 1.145 ± 0.0067 | 1.15 ± 0.036 | 1.08 ± 0.08 | 0.988 ± 0.088 | 0.936 ± 0.083 | 0.864 ± 0.066 | 1.17 ± 0.013 | 1.21 ± 0.12 | 1.26 ± 0.11 | 1.21 ± 0.093 | 1.17 ± 0.059 | 1.15 ± 0.1 | 1.13 ± 0.1 | 0.978 ± 0.14
SG28 HEADNECK | 1.07 ± 0.044 | 1.05 ± 0.025 | 1.07 ± 0.062 | 1.07 ± 0.042 | 0.782 ± 0.042 | 0.907 ± 0.068 | 0.84 ± 0.013 | 0.903 ± 0.067 | 1.07 ± 0.081 | 1.11 ± 0.13 | 1.04 ± 0.093 | 0.986 ± 0.033 | 0.9 ± 0.054 | 0.915 ± 0.047 | 0.9 ± 0.1 | 0.87 ± 0.11
SCC003 HEADNECK | 1.1 ± 0.048 | 1.03 ± 0.14 | 1.1 ± 0.037 | 1.04 ± 0.02 | 0.873 ± 0.38 | 1 ± 0.23 | 0.906 ± 0.24 | 0.995 ± 0.13 | 1.06 ± 0.054 | 1.03 ± 0.013 | 1.12 ± 0.077 | 1.08 ± 0.045 | 0.984 ± 0.033 | 0.967 ± 0.096 | 1.04 ± 0.1 | 0.908 ± 0.091
SIHA CERVIX | 1.03 ± 0.029 | 1.02 ± 0.029 | 1 ± 0.024 | 1.11 ± 0.04 | 1.09 ± 0.036 | 1.061 ± 0.0087 | 1.05 ± 0.055 | 1.03 ± 0.037 | 1.04 ± 0.022 | 1.1 ± 0.082 | 1.09 ± 0.0035 | 1.06 ± 0.023 | 1.04 ± 0.062 | 1.08 ± 0.084 | 1.02 ± 0.11 | 0.931 ± 0.051
SYO1 SYNOVIAL | 0.9541 ± 0.0069 | 0.979 ± 0.064 | 0.97 ± 0.062 | 0.974 ± 0.036 | 0.936 ± 0.036 | 0.976 ± 0.056 | 0.805 ± 0.062 | 0.743 ± 0.032 | 0.997 ± 0.021 | 1 ± 0.029 | 0.987 ± 0.049 | 1.07 ± 0.019 | 0.993 ± 0.023 | 1.03 ± 0.018 | 0.894 ± 0.019 | 0.781 ± 0.011
HT1080 SOFT TISSUE | 1.02 ± 0.058 | 1.04 ± 0.032 | 1.06 ± 0.027 | 1.04 ± 0.011 | 0.991 ± 0.02 | 0.978 ± 0.027 | 0.98 ± 0.027 | 0.957 ± 0.027 | 1.01 ± 0.026 | 1.04 ± 0.027 | 1.01 ± 0.04 | 1.02 ± 0.022 | 0.987 ± 0.054 | 1.01 ± 0.051 | 0.962 ± 0.016 | 0.846 ± 0.029
SG43 HEADNECK | 1.19 ± 0.17 | 1.12 ± 0.25 | 1.05 ± 0.13 | 1.05 ± 0.055 | 1.66 ± 0.17 | 1.76 ± 0.32 | 1.93 ± 0.23 | 1.98 ± 0.2 | 0.871 ± 0.21 | 1.22 ± 0.069 | 1.03 ± 0.14 | 1.16 ± 0.14 | 1.37 ± 0.25 | 1.38 ± 0.36 | 1.31 ± 0.19 | 1.43 ± 0.061
MCF7 BREAST | 0.969 ± 0.072 | 0.912 ± 0.05 | 0.948 ± 0.023 | 0.943 ± 0.017 | 0.992 ± 0.064 | 0.995 ± 0.073 | 0.942 ± 0.068 | 0.97 ± 0.078 | 0.946 ± 0.053 | 0.874 ± 0.035 | 0.902 ± 0.033 | 0.888 ± 0.012 | 0.99 ± 0.058 | 0.955 ± 0.03 | 0.933 ± 0.019 | 1 ± 0.06
HELA CERVIX | 1.05 ± 0.016 | 1.03 ± 0.053 | 1.09 ± 0.034 | 1 ± 0.033 | 1.09 ± 0.079 | 1.06 ± 0.073 | 1.15 ± 0.074 | 1.091 ± 0.0094 | 1.1 ± 0.048 | 1.06 ± 0.049 | 1.115 ± 0.011 | 1.06 ± 0.039 | 1.13 ± 0.03 | 1.11 ± 0.021 | 1.21 ± 0.029 | 1.22 ± 0.072
VP229 BREAST | 1.24 ± 0.14 | 1.12 ± 0.11 | 1.04 ± 0.075 | 1.18 ± 0.24 | 1.05 ± 0.041 | 1.08 ± 0.094 | 1.28 ± 0.04 | 1.12 ± 0.059 | 1.03 ± 0.15 | 1.07 ± 0.05 | 1.09 ± 0.14 | 1.06 ± 0.07 | 0.9067 ± 0.0046 | 0.916 ± 0.14 | 1.11 ± 0.062 | 0.897 ± 0.075
NY BONE | 1.03 ± 0.038 | 1.04 ± 0.018 | 1.08 ± 0.025 | 1.1 ± 0.049 | 1.12 ± 0.043 | 1.12 ± 0.03 | 1.01 ± 0.06 | 1.01 ± 0.045 | 1.04 ± 0.014 | 1.06 ± 0.021 | 1.05 ± 0.024 | 1.07 ± 0.011 | 1.09 ± 0.043 | 1.12 ± 0.029 | 0.9613 ± 0.0029 | 0.915 ± 0.014
